Experimental data taken from patent publication US20030232986A1, “Inhibitors of caspases” (Vertex Pharmaceuticals Incorporated, priority 1998, published 2003).
Where a SMILES comes first, the peptide text is derived from it. [ ]: non-standard residue; d: D form. The star is where a group is joined. Aze = O=C(O)[C@@H]1CCN1; Bz = O=C(c1ccccc1)*

Experiments:
Caspase-1 = biological target: T1, Caspase-1 (Homo sapiens, UniProt P29466); assay: Caspase-1 enzyme inhibition (Ki); format: biochemical; settings: substrate Suc-YVAD-pNA 80 μM, 37° C., pH 7.5
T1 sequence (P29466 120-297 limits assumed): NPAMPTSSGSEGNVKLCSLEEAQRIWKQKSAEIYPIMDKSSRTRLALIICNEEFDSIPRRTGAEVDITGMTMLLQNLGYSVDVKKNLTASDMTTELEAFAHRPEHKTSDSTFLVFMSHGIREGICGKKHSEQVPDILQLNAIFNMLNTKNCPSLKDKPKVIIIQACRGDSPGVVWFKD
T1 sequence (P29466 317-404 limits assumed): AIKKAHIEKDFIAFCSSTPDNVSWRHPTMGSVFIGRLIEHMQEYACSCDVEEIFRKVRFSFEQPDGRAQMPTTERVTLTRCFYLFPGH
In short: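 Ki obtained by fitting rate versus inhibitor concentration to the Morrison tight-binding equation for competitive inhibitors, with pNA release read at 405 nm at 37 °C. Substrate Suc-YVAD-pNA (80 μM final) added after 15 min enzyme–inhibitor preincubation in Tris pH 7.5 buffer with DTT and CHAPS.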

[1] = tested on: Human whole blood, IL-1β production; assay: Whole blood assay for IL-1β production; format: cell-based; settings: LPS-stimulated whole blood, IL-1β by ELISA
In short: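 LPS-stimulated (5.0 ng/ml final) human whole blood incubated with test compound in saline (or plasma/PBS-5% DMSO for hydrophobic compounds) at 30° C for 16-18 hr. Plasma IL-1β then measured by ELISA at 1:200 dilution, against no-LPS, no-inhibitor and vehicle controls.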

[2] = tested on: Human Peripheral Blood Mononuclear Cells (PBMC), mature IL-1β; assay: PBMC cell assay: IL-1β assay with human peripheral blood mononuclear cells; format: cell-based; settings: LPS-stimulated human PBMC, mature IL-1β in supernatant by ELISA
In short: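 Donor PBMC (suspension at 6×10^6 cells/ml) or adherent-enriched monocytes were stimulated with 5 ng/ml LPS (final) alongside 5–6 compound dilutions bracketing the ICE Ki, at 0.1% DMSO final, for 16–18 hr at 37° C, 5% CO2. Mature IL-1β in supernatants was measured by ELISA; IC50 was calculated relative to LPS-only controls.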

Structure (SMILES)	Ki (Caspase-1) [nM]	IC50 [1] [nM]	IC50 [2] [nM]
CC(=O)Nc1c(Cl)cc(C(=O)N[C@@H](C)C(=O)N2CCC[C@H]2C(=O)N[C@H](C=O)CC(=O)O)cc1Cl [Example 7z]	10 to 1000	< 2500	1000 to 2000
COc1ccc(C(=O)N[C@H](C(=O)N2C[C@H](NC(C)=O)C[C@H]2C(=O)N[C@H](C=O)CC(=O)O)C(C)C)cc1 [Example 9a]	10 to 1000	2500 to 7500	500 to 1000
COc1ccc(C(=O)N[C@H](C(=O)N2C[C@H](NC(=O)NC(C)C)C[C@H]2C(=O)N[C@H](C=O)CC(=O)O)C(C)C)cc1 [Example 9b]	< 10	2500 to 7500	500 to 1000
CC(C)NC(=O)N[C@@H]1C[C@@H](C(=O)N[C@H](C=O)CC(=O)O)N(C(=O)[C@@H](NC(=O)c2nccc3ccccc23)C(C)C)C1 [Example 9c]	< 10	< 2500	< 500
CC(C)[C@H](NC(=O)c1nccc2ccccc12)C(=O)N1C[C@H](NS(C)(=O)=O)C[C@H]1C(=O)N[C@H](C=O)CC(=O)O [Example 9d]	< 10	< 2500	500 to 1000
COC(=O)N[C@@H]1C[C@@H](C(=O)N[C@H](C=O)CC(=O)O)N(C(=O)[C@@H](NC(=O)c2ccc(OC)cc2)C(C)C)C1 [Example 9e]	< 10	2500 to 7500	1000 to 2000
COC(=O)N[C@@H]1C[C@@H](C(=O)N[C@H](C=O)CC(=O)O)N(C(=O)[C@@H](NC(=O)c2nccc3ccccc23)C(C)C)C1 [Example 9f]	< 10	< 2500	500 to 1000
CC(=O)N[C@@H]1C[C@@H](C(=O)N[C@H](C=O)CC(=O)O)N(C(=O)[C@@H](NC(=O)c2nccc3ccccc23)C(C)C)C1 [Example 9g]	< 10	2500 to 7500	1000 to 2000
Cc1cc(C(=O)N[C@H](C(=O)N2CCNCC2C(=O)N[C@H](C=O)CC(=O)O)C(C)C)cc(C)c1O (stereo partly drawn) [Example 15a]	< 10	2500 to 7500	> 2000
CC(C)[C@H](NC(=O)c1nccc2ccccc12)C(=O)N1CCNCC1C(=O)N[C@H](C=O)CC(=O)O (stereo partly drawn) [Example 15b]	< 10	2500 to 7500	1000 to 2000
COc1ccc(C(=O)N[C@H](C(=O)N2CCNC[C@H]2C(=O)N[C@H](C=O)CC(=O)O)C(C)C)cc1 [Example 15c]	< 10	< 2500	500 to 1000
C[C@H](NC(=O)c1ccc(N)c(Cl)c1)C(=O)N1CCNC[C@H]1C(=O)N[C@H](C=O)CC(=O)O [Example 16b]	< 10	< 2500	1000 to 2000
COCC(=O)N1CCN(C(=O)[C@H](C)NC(=O)c2nccc3ccccc23)[C@H](C(=O)N[C@H](C=O)CC(=O)O)C1 [Example 18a]	10 to 1000	< 2500	500 to 1000
CC(C)S(=O)(=O)N1CCN(C(=O)[C@H](C)NC(=O)c2nccc3ccccc23)[C@H](C(=O)N[C@H](C=O)CC(=O)O)C1 [Example 18b]	< 10	< 2500	500 to 1000
C[C@H](NC(=O)c1nccc2ccccc12)C(=O)N1CCN(C(N)=O)C[C@H]1C(=O)N[C@H](C=O)CC(=O)O [Example 18c]	10 to 1000	< 2500	500 to 1000
CC(=O)N1CCN(C(=O)[C@H](C)NC(=O)c2nccc3ccccc23)[C@H](C(=O)N[C@H](C=O)CC(=O)O)C1 [Example 18d]	10 to 1000	< 2500	500 to 1000
CC(C)NC(=O)N1CCN(C(=O)[C@H](C)NC(=O)c2nccc3ccccc23)[C@H](C(=O)N[C@H](C=O)CC(=O)O)C1 [Example 18e]	< 10	< 2500	1000 to 2000

Now from value to compound, other results behind:

Ki (Caspase-1) [nM]	IC50 [1] [nM]	Structure (SMILES)	IC50 [2] [nM]
< 10	< 2500	CC(C)(C)[C@H](NC(=O)c1nccc2ccccc12)C(=O)N1CCC[C@H]1C(=O)N[C@H](C=O)CC(=O)O [Example 20a]	500 to 1000
< 10	> 7500	CC(C)(C)[C@H](NC(=O)c1cccc2ccccc12)C(=O)N1CCC[C@H]1C(=O)N[C@H](C=O)CC(=O)O [Example 20b]	500 to 1000
< 10	2500 to 7500	CCC(C)[C@H](NC(=O)c1nccc2ccccc12)C(=O)N1CCC[C@H]1C(=O)N[C@H](C=O)CC(=O)O (stereo partly drawn) [Example 20c]	1000 to 2000
10 to 1000	2500 to 7500	C[C@@H](O)[C@H](NC(=O)c1nccc2ccccc12)C(=O)N1CCC[C@H]1C(=O)N[C@H](C=O)CC(=O)O [Example 20d]	> 2000
< 10	2500 to 7500	CC[C@H](NC(=O)c1nccc2ccccc12)C(=O)N1CCC[C@H]1C(=O)N[C@H](C=O)CC(=O)O [Example 20e]	1000 to 2000
< 10	< 2500	CCC(C)[C@H](NC(=O)c1cc(Cl)c(O)c(Cl)c1)C(=O)N1CCC[C@H]1C(=O)N[C@H](C=O)CC(=O)O (stereo partly drawn) [Example 20k]	< 500
< 10	< 2500	C[C@@H](O)[C@H](NC(=O)c1cc(Cl)c(O)c(Cl)c1)C(=O)N1CCC[C@H]1C(=O)N[C@H](C=O)CC(=O)O [Example 20l]	500 to 1000
< 10	< 2500	O=C[C@H](CC(=O)O)NC(=O)[C@@H]1CCCN1C(=O)[C@H](Cc1cccnc1)NC(=O)c1cc(Cl)c(O)c(Cl)c1 [Example 20n]	500 to 1000
< 10	< 2500	CSC[C@H](NC(=O)c1cc(Cl)c(O)c(Cl)c1)C(=O)N1CCC[C@H]1C(=O)N[C@H](C=O)CC(=O)O [Example 20o]	< 500
< 10	< 2500	CS(=O)(=O)CC[C@H](NC(=O)c1cc(Cl)c(O)c(Cl)c1)C(=O)N1CCC[C@H]1C(=O)N[C@H](C=O)CC(=O)O [Example 20p, 3-({1-[2-(3,5-dichloro-4-hydroxy-benizoylamino)-4-methanesulfonyl-butyryl]-pyrrolidine-2-carbonyl}-amino)-4-oxo-butyric acid]	< 500
10 to 1000	> 7500	CCC(C)[C@H](NC(=O)c1ccc(N)c(Cl)c1)C(=O)N1CCC[C@H]1C(=O)N[C@H](C=O)CC(=O)O (stereo partly drawn) [Example 20q]	500 to 1000
10 to 1000	2500 to 7500	CS(=O)(=O)C[C@H](NC(=O)c1nccc2ccccc12)C(=O)N1CCC[C@H]1C(=O)N[C@H](C=O)CC(=O)O [Example 20r, 3-[(1-{2-[(isoquinoline-1-carbonyl)-amino]-3-methanesulfonyl-propionyl}-pyrrolidine-2-carbonyl)-amino]-4-oxo-butyric acid]	500 to 1000
< 10	< 2500	CS(=O)(=O)CC(NC(=O)c1cc(Cl)c(O)c(Cl)c1)C(=O)N1CCCC1C(=O)NC(C=O)CC(=O)O (stereo not drawn) [Example 20s, 3-({1-[2-(3,5-dichloro-4-hydroxy-benzoylamino)-3-methanesulfonyl-propionyl]-pyrrolidine-2-carbonyl}-amino)-4-oxo-butyric acid]	1000 to 2000
10 to 1000	< 2500	CS(=O)(=O)C[C@H](NC(=O)c1ccc(N)c(Cl)c1)C(=O)N1CCC[C@H]1C(=O)N[C@H](C=O)CC(=O)O [Example 20t]	500 to 1000
< 10	< 2500	CC(NC(=O)c1ccc(N)c(Cl)c1)C(=O)N1N=CC(C)C1C(=O)NC(C=O)CC(=O)O (stereo not drawn) [Example 23g, 3-({2-[2-(4-Amino-3-chloro-benzoylamino)-propionyl]-4-methyl-3,4-dihydro-2H-pyrazole-3-carbonyl}-amino)-4-oxo-butyric acid]	1000 to 2000
10 to 1000	2500 to 7500	COC1CC(C(=O)NC(C=O)CC(=O)O)N(C(=O)C(C)NC(=O)c2ccc(N)c(Cl)c2)C1 (stereo not drawn) [Example 23i, 3-({1-[2-(4-amino-3-chloro-benzoylamino)-propionyl]-4-methoxy-pyrrolidine-2-carbonyl}-amino)-4-oxo-butyric acid]	< 500
10 to 1000	2500 to 7500	CC(C)[C@H](NC(=O)c1ccccc1)C(=O)N1CC[C@H]1C(=O)N[C@H](C=O)CC(=O)O [Example 24d] (Bz-Val-[Aze]-Asp-aldehyde)	500 to 1000
< 10	2500 to 7500	C[C@H](NC(=O)c1nccc2ccccc12)C(=O)N1CCCC[C@H]1C(=O)N[C@H](C=O)CC(=O)O [Example 25a]	< 500
< 10	2500 to 7500	CC(C)[C@H](NC(=O)c1nccc2ccccc12)C(=O)N1CCCC[C@H]1C(=O)N[C@H](C=O)CC(=O)O [Example 25b]	500 to 1000
< 10	2500 to 7500	CC(C)(C)[C@H](NC(=O)c1nccc2ccccc12)C(=O)N1CCCC[C@H]1C(=O)N[C@H](C=O)CC(=O)O [Example 25c]	500 to 1000
< 10	< 2500	COc1ccc(C(=O)N[C@H](C(=O)N2C3CCCCC3C[C@H]2C(=O)N[C@H](C=O)CC(=O)O)C(C)C)cc1 (stereo partly drawn) [Example 26d]	500 to 1000
